The target of one test is Kir1.1 (ROMK1) (Homo sapiens (Human), UniProt P48048). Description: Electrophysiology Assay (whole cell voltage clamp, IonWorks Quattro). Format: cell-based. The conditions noted are these: Chinese hamster ovary cells stably expressing Kir1.1; block during voltage step to 0 mV. The procedure:
Block of Kir1.1 (ROMK1) currents was examined by whole cell voltage clamp (Hamill et. al. […] Prior to an experiment, Kir1.1 expression was induced by overnight incubation with 1 mM sodium butyrate. […] After centrifugation, the cell pellet was resuspended in approximately 4.0 mL of bath solution and placed in the IonWorks instrument. The intracellular solution consisted of (in mM): 80 K gluconate, 40 KCl, 20 KF, 3.2 MgCl2, 3 EGTA, 5 Hepes, pH 7.4. […] Amphotericin B (Sigma A-4888) was prepared as a 40 mg/mL solution in DMSO. Voltage protocols and current recordings were performed using the IonWorks HT software/hardware system. […] No correction for liquid junction potentials was used. The test pulse, consisting of a 100 ms step to 0 mV from a holding potential of −70 mV, followed by a 100 ms voltage ramp from −70 mV to +70 mV, was applied before and after a 6 min compound incubation period. Test compounds were prepared by diluting DMSO stock solutions into the bath solution at 3× the final concentration and placed in the instrument in 96-well polypropylene plates. Current amplitudes were measured using the IonWorks software. To assess compound potency, the fractional block during the voltage step to 0 mV was calculated in Microsoft Excel (Microsoft, Redmond, Calif.), and dose-response curves were fitted with Igor Pro 4.0 (WaveMetrics, Lake Oswego, Oreg.).
For orientation: In patch-clamp work, channel activity is measured electrically.

The target of a further test is hROMK (hKir1.1) (Homo sapiens (Human), UniProt P48048). Nature of the test: Thallium Flux Assay (ROMK channel functional thallium flux, FLIPR-Tetra). The conditions noted are these: HEK293 cells stably expressing hROMK (hKir1.1). Format: cell-based. The method, then: HEK293 cells stably expressing hROMK (hKir1.1) were grown at 37° C. in a 10% CO2 humidified incubator in complete growth media: Dulbecco's Modified Eagle Medium supplemented with non-essential amino acids, Penicillin/Streptomycin/Glutamine, G418 and FBS. At >80% confluency, aspirate the media from the flask and rinse with 10 mL Calcium/Magnesium-free PBS. Add 5 mL of 1× trypsin (prepared in Ca/Mg Free PBS) to T-225 flask and return flask to 37° C./CO2 incubator for 2-3 minutes. To dislodge the cell, gently bang the side of the flask with your hand. Triturate the cells completely and then transfer the cells to 25 mL complete media. Centrifuge at 1,500 rpm for 6 min followed by resuspension in complete growth media and determine cell concentration. For typical re-seeding, 4E6 cells/T-225 flask will attain>80% confluency in 4 days. Under ideal growth conditions and appropriate tissue culture practices, this cell line is stable for 40-45 passages.
hROMK (hKir1.1), sequence (P48048 whole entry): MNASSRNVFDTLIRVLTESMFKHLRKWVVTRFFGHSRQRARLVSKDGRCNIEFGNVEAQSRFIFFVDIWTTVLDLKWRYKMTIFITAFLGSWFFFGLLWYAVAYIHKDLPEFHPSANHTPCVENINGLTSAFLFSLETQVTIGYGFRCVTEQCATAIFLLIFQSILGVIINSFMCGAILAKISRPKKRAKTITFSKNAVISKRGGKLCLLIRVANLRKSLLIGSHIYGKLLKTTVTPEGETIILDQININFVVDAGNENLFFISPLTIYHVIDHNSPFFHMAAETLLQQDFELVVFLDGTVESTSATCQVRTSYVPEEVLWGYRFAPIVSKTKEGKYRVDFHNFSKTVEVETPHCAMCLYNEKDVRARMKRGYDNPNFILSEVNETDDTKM
• FluxOR™ Reagent (Component A) • FluxOR™ Assay Buffer (Component B)—10× Concentrate • PowerLoad™ Concentrate (Component C)—100× Concentrate • Probenecid (Component D)—Lyophilized sample is kept at −20° C. Water soluble, 100× after solubilization in 1 mL water. Store at 4° C. • FluxOR™ Chloride-free Buffer (Component E)—5× Concentrate • Potassium sulfate (K2SO4) Concentrate (Component F)—125 mM in water. Store at 4° C. • Thallium sulfate (Tl2SO4) Concentrate (Component G)—50 mM in water. Store at 4° C. • DMSO (dimethyl sulfoxide, Component H)—1 mL (100%) Reagent Preparation: FluxOR Working Solutions • 1000× FluxOR™ Reagent: Reconstitute a vial of component A in 100 μl DMSO; Mix well; Store 10 μl aliquots at −20° C. • 1× FluxOR™ Assay Buffer: Dilute Component B 10-fold with water; Adjust pH to 7.4 with Hepes/NaOH; Filter and store at 4° C. • Probenecid/Assay Buffer: 100 mL of 1× FluxOR™ Assay Buffer; 1 mL of reconstituted component D; Store at 4° C. • Loading Buffer (per microplate): 10 μl 1000× FluxOR™ Reagent; 100 μl component C; 10 mL Probenecid/Assay Buffer • Compound Buffer (per microplate): 20 mL Probenecid/Assay Buffer; 0.3 mM ouabain (10 mM ouabain in water can be stored in amber bottle/aluminum foil at room temperature); Test compound • 1× FluxOR™ Chloride-Free Buffer: Prepare 1× working solution in water. Can be stored at room temperature • Stimulant Buffer (prepared at 5× final concentration in 1× FluxOR™ Chloride-Free Buffer): 7.5 mM Thallium sulfate and 0.75 mM Potassium sulfate (to give a final assay concentration of 3 mM Thallium/0.3 mM Potassium). Store at 4° C. when not in use. If kept sterile, this solution is good for months. Assay Protocol—
The ROMK channel functional thallium flux assay is performed in 384 wells, using the FLIPR-Tetra instrument. HEK-hKir1.1 cells are seeded in Poly-D-Lysine microplates and kept in a 37° C.-10% CO2 incubator overnight. On the day of the experiment, the growth media is replaced with the FluxOR™ reagent loading buffer and incubated, protected from light, at ambient temperature (23-25° C.) for 90 min. The loading buffer is replaced with assay buffer±test compound followed by 30 min incubation at ambient temperature, where the Thallium/Potassium stimulant is added to the microplate.
• 1. Seed HEK-hKir1.1 cells (50 μl at 20,000 cells/well) in 384-well PDL coated Microplates • 2. Allow cells to adhere overnight in humidified 37° C./10% CO2 incubator • 3. Completely remove cell growth media from microplate and replace with 25 μl loading buffer • 4. Incubate Microplate at room temperature, protected form light, for 90 min • 5. Remove loading buffer and replace with 25 μl 1× Assay Buffer±test compound. • 6. Incubate microplate at room temperature, protected form light, for 30 min • 7. At FLIPR-Tetra 384: Add stimulant (Thallium/Potassium) solution to microplate and monitor fluorescence. Excitation=400 nm, Emission=460 & 580 nm. Collect data for ˜10 min. Data Calculation—

By IC50 is commonly meant the concentration that gives 50% inhibition. Read a high IC50 as a need for much substance.

The structures appear in SMILES notation.

Kir1.1 (ROMK1), sequence (P48048 whole entry): as above

As for `COc1cc([C@@H]2CN3CCN(C(=O)C4CCc5nc(-n6cnnn6)ccc54)C[C@@H]3CO2)ccc1C#N` (some centres unmarked) [Example 63], the IC50 is 0.27 µM against Kir1.1 (ROMK1) and 0.74 µM at hROMK (hKir1.1).

For `N#Cc1c(F)ccc([C@@H]2CN3CCN(C(=O)C4CCc5nc(-n6cnnn6)ccc54)C[C@@H]3CO2)c1Cl` (some centres unmarked) [Example 64], the concentration for half-maximal inhibition (IC50) at Kir1.1 (ROMK1) is 0.1 µM; on hROMK (hKir1.1) it was 0.12 µM.

In the case of `N#Cc1c(F)ccc([C@@H]2CN3CCN(C(=O)C4CCc5nc(-n6cnnn6)ccc54)C[C@@H]3CO2)c1Cl` (some centres unmarked) [Example 65], the figures for the IC50 at Kir1.1 (ROMK1) and against hROMK (hKir1.1) were 0.14 µM and 0.34 µM, respectively.

With `N#Cc1cc([C@@H]2CN3CCN(C(=O)C4CCc5cc(-n6cnnn6)ncc54)C[C@H]3CO2)c(F)cc1F` (some centres unmarked) [Example 68], the IC50 on Kir1.1 (ROMK1) and on hROMK (hKir1.1) was 0.2 µM throughout.

In the case of `COc1c([C@@H]2CN3CCN(C(=O)C4CCc5cc(-n6cnnn6)ncc54)C[C@H]3CO2)ccc(C#N)c1F` (some centres unmarked) [Example 70], the IC50 at Kir1.1 (ROMK1) amounted to 0.1 µM; against hROMK (hKir1.1), 0.5 µM.

`COc1ccc([C@H]2CN3CCN(C(=O)C4CCc5cc(-n6cnnn6)ncc54)C[C@@H]3CO2)c(C)c1C#N` (some centres unmarked) [Example 74]: the IC50 against Kir1.1 (ROMK1) worked out at 0.28 µM; against hROMK (hKir1.1), 0.5 µM.

Consider `Cc1c([C@@H]2CN3CCN(C(=O)C4Cc5cnc(-n6cnnn6)nc5C4)C[C@@H]3CO2)ccc(F)c1C#N` (some centres unmarked) [Example 75], for which the IC50 is 0.15 µM at Kir1.1 (ROMK1) and 0.25 µM against hROMK (hKir1.1).

`Cc1c([C@H]2CN3CCN(C(=O)C4Cc5cnc(-n6cnnn6)nc5C4)C[C@H]3CO2)ccc(F)c1C#N` (some centres unmarked) [Example 76]: the figures for the IC50 on Kir1.1 (ROMK1) and at hROMK (hKir1.1) were 0.13 µM and 0.46 µM, respectively.

`COc1cc(F)c([C@H]2CN3CCN(C(=O)C4CCc5nc(-n6cnnn6)ccc54)C[C@@H]3CO2)cc1C#N` (some centres unmarked) [Example 77]: the half-maximal inhibitory concentration (IC50) against Kir1.1 (ROMK1) stood at 0.29 µM; at hROMK (hKir1.1), 0.4 µM.

`N#Cc1cc([C@@H]2CN3CCN(C(=O)C4CCc5nc(-n6cnnn6)ncc54)C[C@H]3CO2)ccc1F` (some centres unmarked) [Example 79]: the IC50 against Kir1.1 (ROMK1) came to 0.19 µM; at hROMK (hKir1.1), 0.21 µM.

For the compound `N#Cc1cc([C@@H]2CN3CCN(C(=O)C4CCc5nc(-n6cnnn6)ncc54)C[C@@H]3CO2)ccc1F` (some centres unmarked) [Example 80], the IC50 turned out to be 0.12 µM against Kir1.1 (ROMK1) and 0.26 µM on hROMK (hKir1.1).

On to `N#Cc1c(F)ccc([C@@H]2CN3CCN(C(=O)C4CCc5nc(-n6cnnn6)ncc54)C[C@@H]3CO2)c1Cl` (some centres unmarked) [Example 81], for which the IC50 was 0.06 µM on Kir1.1 (ROMK1) and 0.17 µM on hROMK (hKir1.1).

Consider `N#Cc1c(F)ccc([C@@H]2CN3CCN(C(=O)C4CCc5nc(-n6cnnn6)ncc54)C[C@@H]3CO2)c1Cl` (some centres unmarked) [Example 82], for which the values for the IC50 at Kir1.1 (ROMK1) and on hROMK (hKir1.1) were 0.05 µM and 0.14 µM, respectively.

For `N#Cc1c(F)ccc([C@H]2CN3CCN(C(=O)C4CCc5nc(-n6cnnn6)ncc54)C[C@@H]3CO2)c1Cl` (some centres unmarked) [Example 83], the IC50 against Kir1.1 (ROMK1) amounted to 0.08 µM; against hROMK (hKir1.1) it was 0.36 µM.

For `Cc1c([C@@H]2CN3CCN(C(=O)C4CCc5cc(-n6cnnn6)cnc54)C[C@@H]3CO2)ccc(F)c1C#N` (some centres unmarked) [Example 91], the IC50 is 0.14 µM at Kir1.1 (ROMK1) and 0.55 µM against hROMK (hKir1.1).

For the compound `Cc1c([C@H]2CN3CCN(C(=O)C4CCc5cc(-n6cnnn6)ncc54)C[C@H]3CO2)ccc(C#N)c1F` (some centres unmarked) [Example 93], the IC50 worked out at 0.18 µM at Kir1.1 (ROMK1) and 0.43 µM against hROMK (hKir1.1).

Take `Cc1c([C@H]2CN3CCN(C(=O)C4CCc5cc(-n6cnnn6)ncc54)C[C@H]3CN2)ccc(F)c1C#N` (some centres unmarked) [Example 97]: the values for the IC50 against Kir1.1 (ROMK1) and on hROMK (hKir1.1) were 0.09 µM and 0.16 µM, respectively.

Consider `Cc1c([C@@H]2CN3CCN(C(=O)C4CCc5nc(-n6cnnn6)ccc54)C[C@H]3CN2)ccc(F)c1C#N` (some centres unmarked) [Example 98], for which the results for the IC50 against Kir1.1 (ROMK1) and on hROMK (hKir1.1) were 0.17 µM and 0.39 µM, respectively.

Take `Cc1c([C@@H]2CN3CCN(C(=O)C4CCc5cc(-n6cnnn6)cnc54)C[C@H]3CN2)ccc(F)c1C#N` (some centres unmarked) [Example 99]: the IC50 against Kir1.1 (ROMK1) was 0.35 µM; on hROMK (hKir1.1), 0.43 µM.

Turning to `Cc1c([C@@H]2CN3CCN(C(=O)C4CCc5cc(-n6cnnn6)cnc54)C[C@H]3CN2)ccc(F)c1C#N` (some centres unmarked) [Example 100], the IC50 at Kir1.1 (ROMK1) came out at 0.28 µM; at hROMK (hKir1.1), 0.75 µM.

For the compound `Cc1c([C@H]2CN3CCN(C(=O)C4CCc5nc(-n6cnnn6)ncc54)C[C@H]3CN2)ccc(F)c1C#N` (some centres unmarked) [Example 102], the IC50 stood at 0.1 µM at Kir1.1 (ROMK1) and 0.45 µM at hROMK (hKir1.1).

On to `Cc1c([C@H]2CN3CCN(C(=O)C4CCc5cc(-n6cnnn6)ncc54)C[C@@H]3CN2)ccc(F)c1C#N` (some centres unmarked) [Example 103], for which the IC50 stood at 0.11 µM on Kir1.1 (ROMK1) and 0.18 µM against hROMK (hKir1.1).

Take `Cc1c([C@H]2CN3CCN(C(=O)C4CCc5cc(-n6cnnn6)ncc54)C[C@@H]3CN2)ccc(F)c1C#N` (some centres unmarked) [Example 104]: the IC50 against Kir1.1 (ROMK1) came out at 0.12 µM; against hROMK (hKir1.1), 0.36 µM.

Take `Cc1c([C@@H]2CN3CCN(C(=O)C4CCc5cc(-n6cnnn6)ncc54)C[C@@H]3CN2)ccc(F)c1C#N` (some centres unmarked) [Example 105]: the IC50 was determined as 0.08 µM against Kir1.1 (ROMK1) and 0.14 µM at hROMK (hKir1.1).

For `Cc1c([C@@H]2CN3CCN(C(=O)C4CCc5cc(-n6cnnn6)ncc54)C[C@@H]3CN2)ccc(F)c1C#N` (some centres unmarked) [Example 106], the values for the IC50 against Kir1.1 (ROMK1) and against hROMK (hKir1.1) were 0.12 µM and 0.4 µM, respectively.
